According to US6905852B1, “Herbicide-resistant protoporphyrinogen oxidase isolated from Nicotiana tabacum” (Nihon Nohyaku Co., Ltd., priority 1997, dated 2005):

Assays:
[1] = biological target: T1, E. coli SASX38 strain having pBAtPX-C with Arabidopsis thaliana wild type protoporphyrinogen oxidase gene (Arabidopsis thaliana, UniProt P55826); experiment: Growth inhibition of E. coli SASX38 (liquid culture with shaking); format: cell-based; settings: Arabidopsis thaliana wild type (pBAtPX-C); read-out: IC50, growth of E. coli
T1 construct: expressed in transfected cells; host or cells: E. coli SASX38 (hemG-deficient) carrying pBAtPX-C (pBluescript SK(-))
T1 sequence (P55826 35-537): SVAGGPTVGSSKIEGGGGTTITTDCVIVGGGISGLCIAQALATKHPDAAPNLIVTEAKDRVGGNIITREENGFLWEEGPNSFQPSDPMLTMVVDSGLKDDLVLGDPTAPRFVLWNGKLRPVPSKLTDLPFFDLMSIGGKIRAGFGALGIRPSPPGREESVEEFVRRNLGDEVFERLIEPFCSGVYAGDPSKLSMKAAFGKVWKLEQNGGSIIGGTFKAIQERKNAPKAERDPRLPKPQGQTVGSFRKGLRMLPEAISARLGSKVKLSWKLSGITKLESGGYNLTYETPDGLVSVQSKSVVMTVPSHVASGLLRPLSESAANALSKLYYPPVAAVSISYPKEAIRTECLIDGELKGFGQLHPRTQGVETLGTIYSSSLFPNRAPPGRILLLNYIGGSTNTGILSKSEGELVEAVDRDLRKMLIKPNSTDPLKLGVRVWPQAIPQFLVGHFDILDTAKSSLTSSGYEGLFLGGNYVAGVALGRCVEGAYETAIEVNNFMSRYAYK
Protocol: The E. coli SASX38 strain containing either of the above-described two kinds of plasmid was cultured with shaking in LB liquid medium containing 50 μg/ml of ampicillin at 28° C. for overnight.

[2] = test system: non-transformed tobacco plant; experiment: Leaf disk method, bleaching; format: cell-based, N. Tabacum var. SR1
Protocol: From the transformed plant with which the confirmation of introduction of gene was finished, and non-transformed plant used as a control, a leaf almost the same position of the leaf was picked and 9 mm diameter leaf disks were prepared, and floated on a dish in which 0, 125, 250, 1,250, 2,500, 5,000, 12,500 nM of compound A aqueous solution were contained. After incubation at 27° C. for one week under continuous strong light, the bleaching of the leaf disks was observed, and the permissive concentration to compound A was calculated. As a result (Table 7), in case that the tolerant type of protoporphirinogen oxidase cDNA from tobacco was introduced by pBI-NtPX-RC, more than 100 times of tolerance was observed comparing to the control non-transformed plant. However, in case that rsistant type cDNA from Arabidopsis thaliana was introduced by pBI-AtPX-RC, 4 times of resistance was observed comparing to the control, and in case that the wild type cDNA was introduced, high resistance was not observed in each case.

## CCOC(=O)COc1cc(-c2nn(C)c(OC(F)F)c2Cl)c(F)cc1Cl [Compound A, ethyl 2-chloro-5-(4-chloro-5-difluoromethoxy-1-methyl-1H-pyrazol-3-yl)-4-fluorophenoxyacetate]
[1]
  IC50: ~5 nM
[2]; Introduced gene: None (reference)
  Resistance: 1 X
[2]; Introduced gene: None, one week, continuous strong light
  Permission conc. to compound A: 125 nM
